Literature values in patent US20060148027A1, “Sprouty and SPRED protein biosensors” (Board of Regents, the University of Texas System, priority 2005, published 2006).

Settings: known potential of the reference redox dye

In the case of Cc1cc2nc3cc(C)c(N)cc3[n+](-c3ccccc3)c2cc1N.[Cl-] [Safranine O], the redox potential is listed as −289 mV.
